Reference: ChEMBL document CHEMBL3885881, “DrugMatrix”

Species on record: Rattus norvegicus
Experiment: DrugMatrix - Regimen: Daily Repeat
Assay type: toxicity, organism-based, Sprague-Dawley
Parameters: regimen Daily Repeat, gender Male, age 6-8 weeks
Conditions: in vivo, vehicle 100 % SALINE; for ABSOLUTE BASOPHIL / ABSOLUTE EOSINOPHIL / ABSOLUTE LYMPHOCYTE / ABSOLUTE MONOCYTE / BASOPHIL / EOSINOPHIL / ERYTHROCYTE COUNT / HEMATOCRIT / HEMOGLOBIN / LEUKOCYTE COUNT / LYMPHOCYTE / MEAN CORPUSCULAR HEMOGLOBIN / MEAN CORPUSCULAR HEMOGLOBIN CONCENTRATION / MEAN CORPUSCULAR VOLUME / MONOCYTE / NEUTROPHIL / NUCLEATED RED BLOOD CELLS / PLATELET COUNT: tissue Blood
[1] = ip, 0.5 mg/kg, […], tissue Plasma, route intraperitoneal, dose level High, time 28 day
[2] = iv, 0 mg/kg, 72 h, dose level Control, time 3 day
[3] = iv, 0 mg/kg, 72 h, tissue Plasma, dose level Control, time 3 day
[4] = iv, 0 mg/kg, 120 h, dose level Control, time 5 day
[5] = iv, 0 mg/kg, 120 h, tissue Plasma, dose level Control, time 5 day

## CISPLATIN
[1]
  ALKALINE PHOSPHATASE: 134.22 u/L
  ASPARTATE AMINOTRANSFERASE: 78.67 u/L
  BLOOD UREA NITROGEN: 25 mg/dL
  CHOLESTEROL: 63.11 mg/dL
  CREATININE: 0.82 mg/dL
  GLUCOSE: 108.67 mg/dL
  LACTATE DEHYDROGENASE: 80.89 u/L
  LIPASE: 18.22 u/L
  PHOSPHORUS: 9.11 mg/dL
  POTASSIUM: 6.18 MEQ/L
  SODIUM: 151.78 MEQ/L
  TOTAL BILIRUBIN: 0.29 mg/dL
  URIC ACID: 1.11 mg/dL
[2]
  ABSOLUTE BASOPHIL: 0 CELLS/uL
  ABSOLUTE EOSINOPHIL: 0 CELLS/uL
  ABSOLUTE LYMPHOCYTE: 7026.17 CELLS/uL
  ABSOLUTE MONOCYTE: 44.33 CELLS/uL
  BASOPHIL: 0%
  EOSINOPHIL: 0%
  ERYTHROCYTE COUNT: 5.49 x10E6/uL
  HEMATOCRIT: 33.67%
  HEMOGLOBIN: 13.17 G/DL
  LEUKOCYTE COUNT: 7.45 x10E3/uL
  LYMPHOCYTE: 94%
  MEAN CORPUSCULAR HEMOGLOBIN: 24.03 pg
  MEAN CORPUSCULAR HEMOGLOBIN CONCENTRATION: 39.15 G/DL
  MEAN CORPUSCULAR VOLUME: 61.4 fL
  MONOCYTE: 0.67%
  NEUTROPHIL: 5.33%
  NUCLEATED RED BLOOD CELLS: 0.17 /100WBC
  PLATELET COUNT: 1062.5 x10E3/uL
[3]
  ALANINE AMINOTRANSFERASE: 53.17 u/L
  ALKALINE PHOSPHATASE: 339.83 u/L
  ASPARTATE AMINOTRANSFERASE: 83.33 u/L
  BLOOD UREA NITROGEN: 16 mg/dL
  CARBON DIOXIDE: 32.5 mmol/L
  CHLORIDE: 98 MEQ/L
  CHOLESTEROL: 74.67 mg/dL
  CREATININE: 0.2 mg/dL
  GLUCOSE: 128.67 mg/dL
  LACTATE DEHYDROGENASE: 110.33 u/L
  LIPASE: 9 u/L
  PHOSPHORUS: 11.73 mg/dL
  POTASSIUM: 6.34 MEQ/L
  TOTAL BILIRUBIN: 0.18 mg/dL
  URIC ACID: 1.28 mg/dL
[4]
  ABSOLUTE BASOPHIL: 0 CELLS/uL
  ABSOLUTE EOSINOPHIL: 26.67 CELLS/uL
  ABSOLUTE LYMPHOCYTE: 8334.17 CELLS/uL
  ABSOLUTE MONOCYTE: 29.5 CELLS/uL
  BASOPHIL: 0%
  EOSINOPHIL: 0.33%
  ERYTHROCYTE COUNT: 5.44 x10E6/uL
  HEMATOCRIT: 33.77%
  HEMOGLOBIN: 13.05 G/DL
  LEUKOCYTE COUNT: 8.98 x10E3/uL
  LYMPHOCYTE: 92.33%
  MEAN CORPUSCULAR HEMOGLOBIN: 24 pg
  MEAN CORPUSCULAR HEMOGLOBIN CONCENTRATION: 38.67 G/DL
  MEAN CORPUSCULAR VOLUME: 62.05 fL
  MONOCYTE: 0.33%
  NEUTROPHIL: 7%
  NUCLEATED RED BLOOD CELLS: 0 /100WBC
  PLATELET COUNT: 987 x10E3/uL
[5]
  ALANINE AMINOTRANSFERASE: 43.5 u/L
  ALKALINE PHOSPHATASE: 310.17 u/L
  ASPARTATE AMINOTRANSFERASE: 76.67 u/L
  BLOOD UREA NITROGEN: 17 mg/dL
